Where a name gives a salt, the structure may show the parent alone.

Assay type in all cases: biochemical
In one experiment the target is DPP-IX (Homo sapiens (Human), UniProt Q86TI2). Nature of the experiment: Measurement of DPP-IX inhibitory activity (Gly-Pro-AFC). The note with it: 100 μM Gly-Pro-AFC, 50 mM HEPES pH 7.5, room temperature.
In another experiment the target is DPP-II (Homo sapiens (Human), UniProt Q9UHL4). Nature of the experiment: Measurement of DPP-II inhibitory activity (Gly-Pro-AFC). Conditions: 100 μM Gly-Pro-AFC, 50 mM acetic acid pH 4.5, room temperature.
The next experiment concerns the target DPP-VIII (Homo sapiens (Human), UniProt Q6V1X1). Nature of the experiment: Measurement of DPP-VIII inhibitory activity (Gly-Pro-AFC). The note with it: 100 μM Gly-Pro-AFC, 50 mM HEPES pH 7.5, room temperature.
Experiment [1] deals with Dipeptidyl peptidase-IV (DPP-IV) (Homo sapiens (Human), UniProt P27487). The experiment is described as follows: Assay of DPP-IV inhibitory activity (fluorescent substrate Ac-Gly-Pro-AFC). Conditions: DPP-IV 7.1 nM, 100 μM Ac-Gly-Pro-AFC, 25° C., 50 mM HEPES pH 7.4, 1 hour.
Sequence of Dipeptidyl peptidase-IV (DPP-IV) (P27487 whole entry): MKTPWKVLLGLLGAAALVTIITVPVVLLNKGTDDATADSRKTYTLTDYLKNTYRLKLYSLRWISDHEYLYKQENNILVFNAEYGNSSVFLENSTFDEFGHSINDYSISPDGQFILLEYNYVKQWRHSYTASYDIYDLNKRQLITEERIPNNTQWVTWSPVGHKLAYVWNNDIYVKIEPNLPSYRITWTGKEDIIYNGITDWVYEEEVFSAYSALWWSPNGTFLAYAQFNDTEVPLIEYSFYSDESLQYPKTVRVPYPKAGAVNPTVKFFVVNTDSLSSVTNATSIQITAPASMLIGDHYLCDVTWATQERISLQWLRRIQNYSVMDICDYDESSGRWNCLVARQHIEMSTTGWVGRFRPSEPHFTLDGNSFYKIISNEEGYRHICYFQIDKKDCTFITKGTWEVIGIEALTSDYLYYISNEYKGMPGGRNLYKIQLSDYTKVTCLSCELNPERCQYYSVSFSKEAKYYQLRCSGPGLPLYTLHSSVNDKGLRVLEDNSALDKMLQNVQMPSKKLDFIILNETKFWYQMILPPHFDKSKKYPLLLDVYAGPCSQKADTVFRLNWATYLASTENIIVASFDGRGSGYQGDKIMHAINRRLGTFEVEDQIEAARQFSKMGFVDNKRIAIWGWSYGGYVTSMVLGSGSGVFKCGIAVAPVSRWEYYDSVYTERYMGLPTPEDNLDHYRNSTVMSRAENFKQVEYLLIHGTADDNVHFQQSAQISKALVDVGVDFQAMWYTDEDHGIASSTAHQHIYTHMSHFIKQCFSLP

Sequence of DPP-VIII (Q6V1X1 whole entry, species assumed): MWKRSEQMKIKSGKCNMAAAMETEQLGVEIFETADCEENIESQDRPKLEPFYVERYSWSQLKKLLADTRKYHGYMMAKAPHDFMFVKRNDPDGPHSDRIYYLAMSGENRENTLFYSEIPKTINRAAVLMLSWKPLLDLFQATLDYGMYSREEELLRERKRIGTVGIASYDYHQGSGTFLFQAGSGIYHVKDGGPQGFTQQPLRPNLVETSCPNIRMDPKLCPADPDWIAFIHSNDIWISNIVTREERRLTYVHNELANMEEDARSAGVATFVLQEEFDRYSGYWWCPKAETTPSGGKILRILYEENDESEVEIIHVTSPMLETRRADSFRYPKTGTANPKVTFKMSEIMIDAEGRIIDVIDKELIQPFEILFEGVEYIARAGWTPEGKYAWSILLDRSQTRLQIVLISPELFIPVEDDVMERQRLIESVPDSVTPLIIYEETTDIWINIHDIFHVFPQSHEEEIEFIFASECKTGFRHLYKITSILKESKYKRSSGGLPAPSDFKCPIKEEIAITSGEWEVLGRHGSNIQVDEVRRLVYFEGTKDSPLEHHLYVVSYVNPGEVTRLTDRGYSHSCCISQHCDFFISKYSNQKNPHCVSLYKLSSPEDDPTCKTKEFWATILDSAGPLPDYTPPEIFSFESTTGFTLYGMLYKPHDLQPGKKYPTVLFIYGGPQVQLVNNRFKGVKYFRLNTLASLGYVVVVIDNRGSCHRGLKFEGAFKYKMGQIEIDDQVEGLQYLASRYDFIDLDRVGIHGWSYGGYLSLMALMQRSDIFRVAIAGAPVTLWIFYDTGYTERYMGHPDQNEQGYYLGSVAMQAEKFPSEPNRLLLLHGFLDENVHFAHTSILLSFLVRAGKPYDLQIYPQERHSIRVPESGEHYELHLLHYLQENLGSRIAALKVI
Sequence of DPP-IX (Q86TI2 whole entry, species assumed): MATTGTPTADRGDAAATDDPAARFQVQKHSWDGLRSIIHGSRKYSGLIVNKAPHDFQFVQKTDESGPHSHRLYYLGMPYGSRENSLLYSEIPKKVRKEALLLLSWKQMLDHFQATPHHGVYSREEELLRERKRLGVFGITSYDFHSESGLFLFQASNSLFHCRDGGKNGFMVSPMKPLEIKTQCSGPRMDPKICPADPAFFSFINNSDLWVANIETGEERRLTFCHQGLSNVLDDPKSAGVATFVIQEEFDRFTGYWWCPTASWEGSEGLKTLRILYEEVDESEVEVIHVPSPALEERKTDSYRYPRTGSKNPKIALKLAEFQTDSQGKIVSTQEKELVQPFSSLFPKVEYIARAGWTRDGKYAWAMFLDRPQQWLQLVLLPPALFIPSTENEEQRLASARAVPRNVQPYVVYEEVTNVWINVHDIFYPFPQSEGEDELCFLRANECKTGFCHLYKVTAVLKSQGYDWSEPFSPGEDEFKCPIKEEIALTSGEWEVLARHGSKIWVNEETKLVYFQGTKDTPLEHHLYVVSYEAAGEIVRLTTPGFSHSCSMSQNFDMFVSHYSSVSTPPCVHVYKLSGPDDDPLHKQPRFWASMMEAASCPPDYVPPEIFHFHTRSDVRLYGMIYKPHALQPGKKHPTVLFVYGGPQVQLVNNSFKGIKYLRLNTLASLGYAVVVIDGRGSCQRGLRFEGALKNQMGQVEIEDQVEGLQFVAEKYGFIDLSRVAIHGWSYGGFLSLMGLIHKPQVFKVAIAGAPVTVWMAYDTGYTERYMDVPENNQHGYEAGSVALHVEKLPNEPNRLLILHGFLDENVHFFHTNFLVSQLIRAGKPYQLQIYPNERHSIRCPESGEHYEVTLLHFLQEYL

Turning to `N[C@@H](CC(=O)N1CCc2c(nc(C(F)(F)F)nc2C(F)(F)F)C1)CN1C(=O)CCC(F)(F)[C@@H]1O` [Example 2, 1-[(2S)-amino-4-(2,4-bis-trifluoromethyl-5,8-dihydro-6H-pyrido[3,4-d]pyrimidin-7-yl)-4-oxo-butyl]-5,5-difluoro-(6S)-hydroxy-piperidin-2-one hydrochloride], the IC50 against DPP-IX was over 400 µM.
Turning to `N[C@@H](CC(=O)N1CCc2c(nc(C3CCC3)nc2C(F)(F)F)C1)CN1C(=O)CCC(F)(F)C1O` (stereo partly drawn) [Example 5, 1-[(S)-2-amino-4-(2-cyclobutyl-4-trifluoromethyl-5,8-dihydro-6H-pyrido[3,4-d]pyrimidin-7-yl)-4-oxo-butyl]-5,5-difluoro-6-hydroxy-piperidin-2-one hydrochloride], the IC50 against DPP-II was over 161 µM; against DPP-VIII it was over 400 µM; on DPP-IX it was over 400 µM.
In the case of `N[C@@H](CC(=O)N1CCc2c(nc(-c3ccncc3)nc2C(F)(F)F)C1)CN1C(=O)CCC(F)(F)[C@@H]1O` [Example 6, 1-[(S)-2-amino-4-oxo-4-(2-pyridin-4-yl-4-trifluoromethyl-5,8-dihydro-6H-pyrido[3,4-d]pyrimidin-7-yl)-butyl]-5,5-difluoro-6-hydroxy-piperidin-2-one], the IC50 was over 70 µM against DPP-II, over 127 µM against DPP-VIII and over 100 µM against DPP-IX.
The matching figures for `N[C@@H](CC(=O)N1CCc2c(nc(-c3ccco3)nc2C(F)(F)F)C1)CN1C(=O)CCC(F)(F)[C@@H]1O` [Example 8, 1-[(S)-2-amino-4-(2-furan-2-yl-4-trifluoromethyl-5,8-dihydro-6H-pyrido[3,4-d]pyrimidin-7-yl)-butyl]-4-oxo-butyl]-5,5-difluoro-6-hydroxy-piperidin-2-one hydrochloride]: over 80 µM, over 400 µM and over 130 µM.
The matching figures for `COCCc1nc2c(c(C(F)(F)F)n1)CCN(C(=O)C[C@H](N)CN1C(=O)CCC(F)(F)[C@@H]1O)C2` [Example 10, 1-{(S)-2-amino-4-[2-(2-methoxy-ethyl)-4-trifluoromethyl-5,8-dihydro-6H-pyrido[3,4-d]pyrimidin-7-yl]-4-oxo-butyl}-5,5-difluoro-6-hydroxy-piperidin-2-one hydrochloride]: over 400 µM, over 400 µM and over 210 µM.
In the case of `CC1CC(=O)N(C[C@@H](N)CC(=O)N2CCc3c(nc(C(C)(C)C)nc3C(F)(F)F)C2)C1=O` (stereo partly drawn) [Example 22, 1-[(S)-2-amino-4-(2-t-butyl-4-trifluoromethyl-5,8-dihydro-6H-pyrido[3,4-d]pyrimidin-7-yl)-4-oxo-butyl]-3-methyl-pyrrolidine-2,6-dione hydrochloride], in experiment [1], the IC50 was over 2.5 µM.
